In assay [1] the target is T1, Genome polyprotein (dengue virus type 2, UniProt P29990). It is filed as functional, Thailand/16681/1984.
In assay [2] the target is T1, Genome polyprotein. The format is functional, Thailand/16681/1984. This is another data set of the same source.

“And” between values parts separate entries of the source, which are not always exact repeats. Identical values can stand only once.

T1 sequence (P29990 1346-1475 limits assumed): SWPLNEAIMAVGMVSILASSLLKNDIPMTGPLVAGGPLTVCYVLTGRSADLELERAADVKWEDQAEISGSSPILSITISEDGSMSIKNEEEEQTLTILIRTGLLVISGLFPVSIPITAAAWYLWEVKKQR
T1 sequence (P29990 1476-2093 limits assumed): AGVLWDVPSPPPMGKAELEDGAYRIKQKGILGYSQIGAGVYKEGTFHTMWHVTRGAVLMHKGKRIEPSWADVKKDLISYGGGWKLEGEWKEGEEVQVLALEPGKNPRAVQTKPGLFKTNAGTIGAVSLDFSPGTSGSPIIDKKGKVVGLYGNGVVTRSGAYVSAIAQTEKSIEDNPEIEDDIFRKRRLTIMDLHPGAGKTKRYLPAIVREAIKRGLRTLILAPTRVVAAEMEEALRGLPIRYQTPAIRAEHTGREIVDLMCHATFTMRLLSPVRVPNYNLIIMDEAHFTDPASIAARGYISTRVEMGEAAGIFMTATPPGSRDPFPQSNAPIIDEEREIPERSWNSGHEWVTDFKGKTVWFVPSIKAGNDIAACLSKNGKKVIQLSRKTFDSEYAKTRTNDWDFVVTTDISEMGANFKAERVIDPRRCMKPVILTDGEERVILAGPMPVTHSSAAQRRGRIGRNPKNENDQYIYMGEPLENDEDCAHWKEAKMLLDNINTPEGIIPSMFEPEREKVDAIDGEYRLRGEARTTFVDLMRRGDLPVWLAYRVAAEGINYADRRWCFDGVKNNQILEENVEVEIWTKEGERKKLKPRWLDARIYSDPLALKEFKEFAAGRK

A word on the IC50: it is the midpoint of a concentration-inhibition curve. Read a low IC50 as greater potency in that assay. As for `Cc1ncc(-c2cc(F)cc(C(=O)Nc3ccc4c(c3)CNC4)c2)o1`, the results for the IC50 on Genome polyprotein [1] and on Genome polyprotein [2] were above 100 µM and above 99.5 µM, respectively.

Take `O=C(Nc1cc(-c2cccnc2)ccn1)c1cc2n(n1)CCO2`: the IC50 against Genome polyprotein [1] was above 100 µM; at Genome polyprotein [2], above 99.5 µM.

For `Cc1c(C(=O)Nc2cccc([C@H]3CCOC3)c2)cc(C2CC2)n1C`, the IC50 on Genome polyprotein [1] is above 100 µM; on Genome polyprotein [2] it was above 99.5 µM.

On to `O=C(Nc1cc(-c2cccnc2)ccn1)c1csc(C[C@H]2CCNC2)n1`, for which the IC50 at Genome polyprotein [1] is above 100 µM; against Genome polyprotein [2], above 99.5 µM.

For `CNC(=O)[C@H](Nc1cc(Cl)cc2[nH]ncc12)c1ccc2c(c1)CNC2`, the IC50 is above 100 µM at Genome polyprotein [1] and above 99.5 µM against Genome polyprotein [2].

Consider `Cc1c(C(=O)Nc2cc(-c3cccnc3)ccn2)cc(C2CCCC2)n1C`, for which the IC50 at Genome polyprotein [1] is above 100 µM; at Genome polyprotein [2], above 99.5 µM.

For `C=CC[C@H]1NCc2cc(N[C@H](C(=O)NC(C)C)c3cccc4[nH]ncc34)ccc21`, the values for the IC50 on Genome polyprotein [1] and against Genome polyprotein [2] were above 100 µM and above 99.5 µM, respectively.

Regarding `CC(C)n1cc(C(=O)Nc2cc(-c3cccnc3)ccn2)c2ccccc21`, the values for the IC50 at Genome polyprotein [1] and against Genome polyprotein [2] were above 100 µM and above 99.5 µM, respectively.

On to `O=C(Nc1ccc2c(c1)CNC2)c1cc(Cl)cc2[nH]c(-c3cn[nH]c3)cc12`, for which the IC50 was above 100 µM on Genome polyprotein [1] and above 99.5 µM at Genome polyprotein [2].

Consider `O=C(Nc1ccc2c(c1)CNC2)c1cc(Cl)cc2[nH]c(COc3ccccn3)nc12`, for which the IC50 was 20.1 µM and 16.8 µM on Genome polyprotein [1]; above 99.5 µM against Genome polyprotein [2].

Regarding `O=C(Nc1cc(-c2cccnc2)ccn1)c1cnn2c1CCC2`, the IC50 on Genome polyprotein [1] is above 100 µM; against Genome polyprotein [2] it was above 99.5 µM.

On to `O=C(NCCC1CC1)[C@H](Nc1ccc2c(c1)CNC2)c1cc(Cl)cc(C2CC2)c1`, for which the values for the IC50 on Genome polyprotein [1] and at Genome polyprotein [2] were above 100 µM and above 99.5 µM, respectively.

With `O=C(Nc1ccc2c(c1)CNC2)c1cc(Cl)cc2[nH]c(CN3CCCC3=O)cc12`, the IC50 against Genome polyprotein [1] is above 100 µM; on Genome polyprotein [2] it was above 99.5 µM.

With `Cc1c(C(=O)Nc2cc(-c3cccnc3)ccn2)cc(-c2ccccc2)n1C`, the IC50 was above 100 µM against Genome polyprotein [1] and above 99.5 µM against Genome polyprotein [2].

Consider `O=C(Nc1ccc2c(c1)CS(=O)(=O)C2)c1cc(Cl)cc2[nH]ncc12`, for which the results for the IC50 against Genome polyprotein [1] and at Genome polyprotein [2] were above 100 µM and above 99.5 µM, respectively.

As to `Cc1c(C(=O)Nc2cc(SC3COC3)ccn2)cc(C2CC2)n1C`, the half-maximal inhibitory concentration (IC50) is above 100 µM on Genome polyprotein [1] and above 99.5 µM against Genome polyprotein [2].

In the case of `O=C(Nc1ccc2c(c1)CNC2)c1cc(F)cc(-c2cccnc2)c1`, the IC50 against Genome polyprotein [1] is above 100 µM; against Genome polyprotein [2] it was above 99.5 µM.

Regarding `O=C(Nc1ccc2c(c1)CNC2)c1cc(Cl)cc2[nH]c(-c3cnccc3O)nc12`, the results for the IC50 at Genome polyprotein [1] and on Genome polyprotein [2] were above 100 µM and 37.1 µM, respectively.

On to `Cc1c(C(=O)Nc2cccc(-c3cccnc3)c2)cc(C2CC2)n1C`, for which the values for the IC50 against Genome polyprotein [1] and at Genome polyprotein [2] were above 100 µM and above 99.5 µM, respectively.

Regarding `Cc1c(C(=O)Nc2ccnc(O[C@H]3CCOC3)c2)cc(C2CC2)n1C`, the figures for the IC50 on Genome polyprotein [1] and against Genome polyprotein [2] were above 100 µM and above 99.5 µM, respectively.

Consider `CNC(=O)[C@H](Nc1ccc2c(c1)CNC2)c1cc(Cl)cc2c1OCC2`, for which the IC50 on Genome polyprotein [1] was above 100 µM; at Genome polyprotein [2] it was above 99.5 µM.

In the case of `O=C(Nc1ccc2c(c1)CNC2)c1ccc2ccncc2c1`, the half-inhibitory concentration (IC50) is above 100 µM at Genome polyprotein [1] and above 99.5 µM against Genome polyprotein [2].

`O=C(Nc1ccc2c(c1)CNC2)c1cc(F)cc(-c2ccnn2CC2CC2)c1`: the IC50 at Genome polyprotein [1] was above 100 µM; against Genome polyprotein [2], above 99.5 µM.

As for `O=C(Nc1cc(-c2cccnc2)ccn1)c1cc2n(n1)CCS2(=O)=O`, the IC50 against Genome polyprotein [1] is above 100 µM; against Genome polyprotein [2], above 99.5 µM.

For `Cc1c(C(=O)Nc2cccc(-c3ccccc3)c2)cc(C2CC2)n1C`, the IC50 is above 100 µM on Genome polyprotein [1] and above 99.5 µM at Genome polyprotein [2].

As for `O=C(Nc1cc(-c2cccnc2)ccn1)c1cc2n(n1)CC1(CC1)C2`, the values for the concentration for half-maximal inhibition (IC50) against Genome polyprotein [1] and against Genome polyprotein [2] were above 100 µM and above 99.5 µM, respectively.

As for `Nc1nc2c(Br)cc(C(=O)Nc3ccc4c(c3)CNC4)cc2s1`, the IC50 against Genome polyprotein [1] is 51.9 µM and 37.3 µM; on Genome polyprotein [2], 28.2 µM.

As to `Cc1c(C(=O)Nc2cc(-c3ccccc3)ccn2)cc(C2CC2)n1C`, the IC50 on Genome polyprotein [1] was above 100 µM; against Genome polyprotein [2], above 99.5 µM.

The values are drawn from ChEMBL document CHEMBL5604063, “ASAP - DENV-2 NS2B-NS3 protease fluorescence dose response” (2024).
